# Test results: paper PMC12163822, “Synthesis and Pharmacological Characterization of a Novel Cannabinoid Receptor 1 Antagonist” (ACS Omega, 2025)
# Molecular target: cannabinoid receptors
# Assay: [3H]CP55,940 competition binding in rat brain cortex membrane homogenates
# Set-up: species or system Sprague-Dawley rat
# Settings: competition vs 0.5 nM [3H]CP55,940, rat brain cortex membranes, one-site fit; read-out: IC50
# Protocol: Sprague–Dawley rats (n = 5) were anesthetized and sacrificed by decapitation. Spleens and brains were then quickly removed by dissection at 4 °C, and in the case of the brain tissue, the cortex was dissected for the preparation of the membrane homogenates. For this procedure, spleen and cortex samples were homogenized using a Teflon-glass grinder (15 up-and-down strokes at 800 rpm) in 30 volumes of homogenization buffer (1 mM EGTA, 3 mM MgCl2, 50 mM Tris–HCl; pH 7.4) supplemented with […], at 4 °C. The obtained homogenates were centrifuged for 5 min at 1500 rpm. Pellets were removed, and supernatants were centrifuged again for 15 min at 14,000 rpm. For washing, the obtained pellets were resuspended in a buffer and centrifuged again, and the supernatant was removed. The resulting aliquots were stored at −80 °C until use.
# To stop the reaction, an ice-cold wash buffer (50 mM Tris–HCl and 0.5% BSA, pH 7.4) was added. Then, the membranes were retained by vacuum filtration to a Whatman GF/C glass microfiber filter (Sigma-Aldrich, St. Louis, MO, USA) and the free radioligand was discarded. Filters with the bound radioligand were transferred to vials containing 5 mL of Ultima Gold cocktail (Revvity, Boston, MA, USA) and measured with a Packard Tri-Carb 2200CA liquid scintillation counter (Revvity, Boston, MA, USA).
# Data from radioligand affinity assays were analyzed by using nonlinear regression. A comparison of fits was performed for every curve and the preferred model (one site vs two sites) was chosen in each case. Curves were fitted to the pooled data from multiple experiments. For the evaluation of data from autoradiographic assays, the Kruskal–Wallis test followed by Dunn’s post hoc tests for multiple comparisons was performed. For statistical significance, the threshold was set at p = 0.05. The number of replicates or animal sample number used in each case is stated in the figure legends. GraphPad Prism 9 (GraphPad Software) was employed for data analysis and presentation.
row,IC50 [µM],SMILES
1,0.0106,CCOC(=O)CC1c2c([nH]c3ccccc23)-c2ccccc2-n2c(C)nnc21 (stereo not shown) [UVI8113]
2,> 10,CCOC(=O)/C=C1\C(=O)Nc2ccc(F)cc2-c2c1c1cc(C)ccc1n2C(=O)OCC [UVI3503]
3,> 10,COc1ccc2[nH]c3c(c2c1)/C(=C/C(=O)O)C(=O)Nc1ccc(C)cc1-3 [UVI3509]
4,5.908 ± 0.00718,O=C(O)CC1C(=O)Nc2ccccc2-c2[nH]c3ccccc3c21 (stereo not shown) [UVI3504]
5,310,CCOC(=O)/C=C1\C(=O)Nc2ccccc2-c2c1c1ccccc1n2C(=O)OCC [UVI3508]
6,0.00885 ± 0.0146,CCOC(=O)CC1C(=O)Nc2ccccc2-c2[nH]c3ccccc3c21 (stereo not shown) [UVI3505]
7,7.041 ± 0.018,O=C(O)/C=C1\C(=O)Nc2ccccc2-c2[nH]c3ccccc3c21 [UVI3506]
